In patent US20260217683A1, “PYRIDAZINONE HETEROCYCLIC COMPOUND MYOSIN II INHIBITOR AND USE THEREOF” (Xizang Haisco Pharmaceutical Co., Ltd., priority 2023, published 2026):
Read-outs that look alike come from different tables or passages of the source.

Legend:
[1] = Pharmacokinetic experiment in mice; format: in vivo; details: male, C57, po; mouse plasma, i.g. (10 mg/kg)
Description: (§1) 1. Experimental animals: Male C57 mice, 22-25 g, 6 mice/compound. Purchased from Chengdu Ddossy Experimental Animals Co., Ltd.
(§2) 2. Experimental design: On the day of the experiment, 12 C57 mice were randomly grouped according to their body weight. The animals were fasted with water available for 12 to 14 h one day before the administration and were fed 4 h after the administration.
Before and after the administration, 0.06 mL of blood was taken from the orbit of the animals under isoflurane anesthesia and placed in an EDTAK2 centrifuge tube. The blood was centrifuged at 5000 rpm and 4° C. for 10 min to collect the plasma. The blood collection time points for the intravenous group and intragastric administration group were: 0 m, 5 m, 15 min, 30 min, 1 h, 2 h, 4 h, 7 h and 24 h. Before analysis and detection, all samples were stored at −80° C., and a quantitative analysis of samples was performed using LC-MS/MS.

[2] = tested on: rabbit skeletal muscle myosin; assay: Inhibition of hydrolysis of ATP by rabbit skeletal muscle myosin; format: biochemical
How it was run: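 Actin-activated ATPase: F-actin plus rabbit skeletal myosin II with compound in Tris-HCl pH 7.5/KCl/EGTA/MgCl2, started with ATP (3 mM working stock) and run 60 min at 37 °C. Released Pi measured by CytoPhos absorbance at 650 nm against a phosphate standard curve; IC50 fitted from inhibition relative to uninhibited myosin.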

cardiac myosin SII = molecular target: T1, cardiac myosin SII (Bos taurus, UniProt Q9BE39); assay: Inhibition of hydrolysis of ATP by cardiac myosin SII; format: biochemical; details: 100 μM compound
T1 construct: purchased Cytoskeleton #MYO3-A
Description: The purpose of this test was to evaluate the ability of compounds to inhibit the hydrolysis of ATP by cardiac myosin SII. The determination method was as follows: • 1. Solution formulation: • Preformed F-actin filaments (#AKF99-B, Cytoskeleton) were diluted to 1 mg/mL with Reaction buffer (15 mM Tris-HCL. PH7.5+10 mM KCl+0.1 mM EGTA+2 mM MgCl2); • Cardiac Muscle myosin (#MYO3-A, Cytoskeleton) was diluted to 1 mg/mL with Resuspension buffer (15 mM Tris-HCL, PH7.5+0.2M KCl+1 mM MgCl2); • ATP (#BSA04-001, Cytoskeleton) was diluted to 3 mM working solution with 15 mM Tris-HCL (PH=7.5); • 2. Formulation of working solution of compounds: the final compound concentration was 100 μM • 3. Experimental steps: • adding 10 μL of compound working solution+12 μL of Preformed F-actin filaments+3 μL of Cardiac Muscle myosin to the compound wells; • adding 10 μL of reaction buffer containing DMSO+12 μL Preformed F-actin filaments +3 μL Cardiac Muscle myosin to positive control wells; • adding 10 μL of reaction buffer containing DMSO+12 μL Preformed F-actin filaments +3 μL Resuspension buffer to negative control wells; • adding 5 μL of 3 mM ATP working solution to all test wells to start the reaction, gently mixing and incubating at 37° C. for 2 h; • after the reaction was completed, taking 6 μL of reaction liquid, adding 24 μL of reaction buffer for 5-fold dilution, then detecting the content of the product Pi with a phosphate kit (#BK054, Cytoskeleton); • adding a sample to Pi standard wells according to the instructions; • adding 70 μL of CytoPhos Reagent (#BK054, Cytoskeleton) to each well and incubating at room temperature for 10 min before detection. • 4. Detection: • the OD value of each well was detected at 650 nm. The standard curve was fitted according to Pi standard concentration and OD value, and the Pi concentration of each test well was obtained. Inhibition (%)=(positive control well−test well)/positive control well*100%.

smooth muscle myosin S1 = molecular target: T2, smooth muscle myosin S1 (Gallus gallus, UniProt P10587); assay: Inhibition of hydrolysis of ATP by smooth muscle myosin S1 fragments; format: biochemical; details: 100 μM compound
T2 construct: purchased Cytoskeleton #CS-MYS05
Description: The purpose of this test was to evaluate the ability of compounds to inhibit the hydrolysis of ATP by smooth muscle myosin Si fragments. The determination method was as follows: • 1. Solution formulation • F-actin polymer: Cardiac Actin powder (#CS-AD99, Cytoskeleton) was dissolved in a buffer (5 mM Pipes-KOH solution, PH=7.0, containing 100 μM ATP and 500 μM DTT) to form a 2 mg/mL solution and the solution was left at room temperature for 30 min; then 2 mM MgCl2 and 2 mM EGTA were added and the obtained system was left at room temperature for 40 min; • Smooth muscle SI fragment (#CS-MYS05, Cytoskeleton) was diluted with a pre-cooled PM12 buffer containing 1 mM DTT (12 mM Pipes-KOH solution, PH=7.0, containing 2 mM MgCl2) to form a 0.7 mg/mL solution; • ATP (#BSA04-001, Cytoskeleton) was diluted to 5 mM working solution with 15 mM Tris-HCL (PH=7.5); • 2. […] Experimental steps: • adding 10 μL of compound working solution+6 μL of F-actin polymer+4 μL of Smooth muscle Si fragment solution to the compound wells; • adding 10 μL of PM12 buffer containing DMSO+6 μL of F-actin polymer+4 μL of Smooth muscle S1 fragment solution to positive control wells; • adding 10 μL of PM12 buffer containing DMSO+6 μL of F-actin polymer+4 μL of PM12 buffer to negative control wells; • adding […] of 5 mM ATP working solution to all test wells to start the reaction, gently mixing and incubating at 37° C. for 20 min; • after the reaction was completed, taking 6 μLL of reaction liquid, adding 24 μL of PM12 buffer for 5-fold dilution, then detecting the content of the product Pi with a phosphate kit (#BK054, Cytoskeleton); • adding a standard according to the instructions, adding 70 μL of CytoPhos Reagent (#BK054, Cytoskeleton) to all wells and incubating at room temperature for 10 min before detection. • 4. Detection: • the OD value of each well was detected at 650 nm. The standard curve was fitted according to Pi standard concentration and OD value, and the Pi concentration of each test well was obtained. Inhibition (%)=(positive control well−test well)/positive control well*100%.

CYP3A4 = molecular target: T3, CYP3A4 (Homo sapiens, UniProt P08684); assay: CYP450 enzyme inhibition, human liver microsomes, CYP3A4; format: in vitro ADME
T3 construct: incubated with human liver microsomes and test compounds of different concentrations; from tissue; host or cells: human liver microsomes
Description: (§3) The purpose of this study was to evaluate the effect of the test compound on the activity of five isoenzymes (CYP1A2, CYP2C9, CYP2C19, CYP2D6 and CYP3A4) of human liver microsomal cytochrome P450 (CYP) by using an in vitro testing system. The specific probe substrates of CYP450 isoenzymes were incubated with human liver microsomes and test compounds of different concentrations, and reduced nicotinamide adenine dinucleotide phosphate (NADPH) was added to initiate the reaction. After the completion of the reaction, the sample was treated and liquid chromatography-tandem mass spectrometry (LC-MS/MS) was used to quantitatively detect metabolites produced by specific substrates, changes in CYP enzyme activity were determined, and IC50 value was calculated to evaluate the inhibitory potential of the test compound on each CYP enzyme subtype.

CYP2C19 = molecular target: T4, CYP2C19 (Homo sapiens, UniProt P33261); assay: CYP450 enzyme inhibition, human liver microsomes, CYP2C19; format: in vitro ADME
T4 construct: incubated with human liver microsomes and test compounds of different concentrations; from tissue; host or cells: human liver microsomes
Description: as §3

CYP1A2 = molecular target: T5, CYP1A2 (Homo sapiens, UniProt P05177); assay: CYP450 enzyme inhibition, human liver microsomes, CYP1A2; format: in vitro ADME
T5 construct: incubated with human liver microsomes and test compounds of different concentrations; from tissue; host or cells: human liver microsomes
T5 sequence (P05177 1-516): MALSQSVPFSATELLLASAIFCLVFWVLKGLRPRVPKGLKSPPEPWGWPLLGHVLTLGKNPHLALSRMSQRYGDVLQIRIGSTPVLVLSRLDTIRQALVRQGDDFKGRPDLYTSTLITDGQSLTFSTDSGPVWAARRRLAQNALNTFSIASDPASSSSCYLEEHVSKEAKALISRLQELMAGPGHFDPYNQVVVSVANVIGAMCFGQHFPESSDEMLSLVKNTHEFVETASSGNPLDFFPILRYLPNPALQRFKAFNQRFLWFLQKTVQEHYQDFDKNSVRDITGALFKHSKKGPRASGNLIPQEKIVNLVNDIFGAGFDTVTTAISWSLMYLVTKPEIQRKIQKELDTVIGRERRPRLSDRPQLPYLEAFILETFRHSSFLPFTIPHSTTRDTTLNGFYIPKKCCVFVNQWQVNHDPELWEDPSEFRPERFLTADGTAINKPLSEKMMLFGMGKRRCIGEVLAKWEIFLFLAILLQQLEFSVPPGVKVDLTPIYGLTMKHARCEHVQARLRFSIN
Description: as §3

CYP2D6 = molecular target: T6, CYP2D6 (Homo sapiens, UniProt P10635); assay: CYP450 enzyme inhibition, human liver microsomes, CYP2D6; format: in vitro ADME
T6 construct: incubated with human liver microsomes and test compounds of different concentrations; from tissue; host or cells: human liver microsomes
Description: as §3

CYP2C9 = molecular target: T7, CYP2C9 (Homo sapiens, UniProt P11712); assay: CYP450 enzyme inhibition, human liver microsomes, CYP2C9; format: in vitro ADME
T7 construct: incubated with human liver microsomes and test compounds of different concentrations; from tissue; host or cells: human liver microsomes
Description: as §3

[3] = Pharmacokinetic experiment in mouse muscle tissue (tibialis anterior / plasma); format: in vivo, C57 mice; details: male, C57, tibialis anterior muscle / plasma, oral, intragastric 10 mg/kg, read-out: Ratio = Tibialis anterior Conc./Plasma Conc.
Description: as §1
as §2, with “experiment,” for “experiment, 12”, “administration. Administration was performed as per Table 10.1.” for “administration.”

[4] = inhibition of hydrolysis of ATP, class symbols, read-out: Rabbit skeletal muscle myosin (IC50)
[5] = read-out: IC50 for inhibition of hydrolysis of ATP by rabbit skeletal muscle myosin

T4 sequence (P33261 whole entry): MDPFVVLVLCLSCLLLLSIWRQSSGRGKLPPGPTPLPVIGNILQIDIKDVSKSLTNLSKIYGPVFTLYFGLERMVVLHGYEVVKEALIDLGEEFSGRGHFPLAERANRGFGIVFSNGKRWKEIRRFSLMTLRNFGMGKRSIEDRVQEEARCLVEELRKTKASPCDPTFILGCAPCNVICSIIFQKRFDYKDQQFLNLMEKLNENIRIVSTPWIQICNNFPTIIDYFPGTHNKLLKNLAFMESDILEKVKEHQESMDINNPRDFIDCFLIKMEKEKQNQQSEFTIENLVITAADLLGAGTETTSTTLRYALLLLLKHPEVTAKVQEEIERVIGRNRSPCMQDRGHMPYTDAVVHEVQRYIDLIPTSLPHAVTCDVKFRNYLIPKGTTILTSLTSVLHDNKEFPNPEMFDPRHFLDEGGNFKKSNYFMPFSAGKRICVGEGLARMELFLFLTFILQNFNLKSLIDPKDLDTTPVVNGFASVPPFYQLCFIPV
T2 sequence (P10587 84-789 limits assumed): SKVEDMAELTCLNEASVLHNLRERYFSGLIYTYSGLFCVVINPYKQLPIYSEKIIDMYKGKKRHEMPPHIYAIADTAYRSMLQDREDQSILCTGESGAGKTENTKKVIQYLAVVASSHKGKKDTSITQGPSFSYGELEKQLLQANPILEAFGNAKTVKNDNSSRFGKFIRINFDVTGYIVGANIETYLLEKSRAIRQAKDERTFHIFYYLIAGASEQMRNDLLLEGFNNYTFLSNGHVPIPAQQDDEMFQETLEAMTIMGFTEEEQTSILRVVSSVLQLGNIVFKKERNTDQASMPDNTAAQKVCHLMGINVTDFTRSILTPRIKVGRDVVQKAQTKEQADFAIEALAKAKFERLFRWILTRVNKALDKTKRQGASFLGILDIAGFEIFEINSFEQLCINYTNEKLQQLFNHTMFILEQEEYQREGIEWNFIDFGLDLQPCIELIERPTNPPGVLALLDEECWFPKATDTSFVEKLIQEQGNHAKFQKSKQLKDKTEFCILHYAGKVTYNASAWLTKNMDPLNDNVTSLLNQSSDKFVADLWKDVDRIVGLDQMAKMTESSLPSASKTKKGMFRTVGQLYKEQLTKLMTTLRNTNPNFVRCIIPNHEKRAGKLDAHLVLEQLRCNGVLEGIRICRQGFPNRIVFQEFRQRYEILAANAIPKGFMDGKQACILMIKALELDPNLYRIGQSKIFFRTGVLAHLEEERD
T2 sequence (P02607 whole entry partner, the tested form may be a part): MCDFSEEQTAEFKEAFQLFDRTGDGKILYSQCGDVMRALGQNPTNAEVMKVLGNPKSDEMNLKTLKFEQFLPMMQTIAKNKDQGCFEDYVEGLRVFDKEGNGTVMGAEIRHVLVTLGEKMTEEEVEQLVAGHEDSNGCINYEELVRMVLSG
T6 sequence (P10635 whole entry): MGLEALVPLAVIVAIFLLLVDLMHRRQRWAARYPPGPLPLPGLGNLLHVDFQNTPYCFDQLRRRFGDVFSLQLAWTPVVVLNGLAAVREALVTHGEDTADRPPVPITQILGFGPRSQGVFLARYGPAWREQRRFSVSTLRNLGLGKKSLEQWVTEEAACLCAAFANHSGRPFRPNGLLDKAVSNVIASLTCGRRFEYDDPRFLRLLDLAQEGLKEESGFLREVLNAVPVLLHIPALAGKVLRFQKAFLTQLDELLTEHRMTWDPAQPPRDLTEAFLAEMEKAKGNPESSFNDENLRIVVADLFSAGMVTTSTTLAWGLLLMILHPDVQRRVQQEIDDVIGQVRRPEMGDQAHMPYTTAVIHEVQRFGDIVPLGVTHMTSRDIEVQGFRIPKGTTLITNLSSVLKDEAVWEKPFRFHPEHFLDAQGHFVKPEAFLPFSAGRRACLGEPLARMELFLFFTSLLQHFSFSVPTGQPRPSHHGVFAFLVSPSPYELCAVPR
T1 sequence (Q9BE39 whole entry): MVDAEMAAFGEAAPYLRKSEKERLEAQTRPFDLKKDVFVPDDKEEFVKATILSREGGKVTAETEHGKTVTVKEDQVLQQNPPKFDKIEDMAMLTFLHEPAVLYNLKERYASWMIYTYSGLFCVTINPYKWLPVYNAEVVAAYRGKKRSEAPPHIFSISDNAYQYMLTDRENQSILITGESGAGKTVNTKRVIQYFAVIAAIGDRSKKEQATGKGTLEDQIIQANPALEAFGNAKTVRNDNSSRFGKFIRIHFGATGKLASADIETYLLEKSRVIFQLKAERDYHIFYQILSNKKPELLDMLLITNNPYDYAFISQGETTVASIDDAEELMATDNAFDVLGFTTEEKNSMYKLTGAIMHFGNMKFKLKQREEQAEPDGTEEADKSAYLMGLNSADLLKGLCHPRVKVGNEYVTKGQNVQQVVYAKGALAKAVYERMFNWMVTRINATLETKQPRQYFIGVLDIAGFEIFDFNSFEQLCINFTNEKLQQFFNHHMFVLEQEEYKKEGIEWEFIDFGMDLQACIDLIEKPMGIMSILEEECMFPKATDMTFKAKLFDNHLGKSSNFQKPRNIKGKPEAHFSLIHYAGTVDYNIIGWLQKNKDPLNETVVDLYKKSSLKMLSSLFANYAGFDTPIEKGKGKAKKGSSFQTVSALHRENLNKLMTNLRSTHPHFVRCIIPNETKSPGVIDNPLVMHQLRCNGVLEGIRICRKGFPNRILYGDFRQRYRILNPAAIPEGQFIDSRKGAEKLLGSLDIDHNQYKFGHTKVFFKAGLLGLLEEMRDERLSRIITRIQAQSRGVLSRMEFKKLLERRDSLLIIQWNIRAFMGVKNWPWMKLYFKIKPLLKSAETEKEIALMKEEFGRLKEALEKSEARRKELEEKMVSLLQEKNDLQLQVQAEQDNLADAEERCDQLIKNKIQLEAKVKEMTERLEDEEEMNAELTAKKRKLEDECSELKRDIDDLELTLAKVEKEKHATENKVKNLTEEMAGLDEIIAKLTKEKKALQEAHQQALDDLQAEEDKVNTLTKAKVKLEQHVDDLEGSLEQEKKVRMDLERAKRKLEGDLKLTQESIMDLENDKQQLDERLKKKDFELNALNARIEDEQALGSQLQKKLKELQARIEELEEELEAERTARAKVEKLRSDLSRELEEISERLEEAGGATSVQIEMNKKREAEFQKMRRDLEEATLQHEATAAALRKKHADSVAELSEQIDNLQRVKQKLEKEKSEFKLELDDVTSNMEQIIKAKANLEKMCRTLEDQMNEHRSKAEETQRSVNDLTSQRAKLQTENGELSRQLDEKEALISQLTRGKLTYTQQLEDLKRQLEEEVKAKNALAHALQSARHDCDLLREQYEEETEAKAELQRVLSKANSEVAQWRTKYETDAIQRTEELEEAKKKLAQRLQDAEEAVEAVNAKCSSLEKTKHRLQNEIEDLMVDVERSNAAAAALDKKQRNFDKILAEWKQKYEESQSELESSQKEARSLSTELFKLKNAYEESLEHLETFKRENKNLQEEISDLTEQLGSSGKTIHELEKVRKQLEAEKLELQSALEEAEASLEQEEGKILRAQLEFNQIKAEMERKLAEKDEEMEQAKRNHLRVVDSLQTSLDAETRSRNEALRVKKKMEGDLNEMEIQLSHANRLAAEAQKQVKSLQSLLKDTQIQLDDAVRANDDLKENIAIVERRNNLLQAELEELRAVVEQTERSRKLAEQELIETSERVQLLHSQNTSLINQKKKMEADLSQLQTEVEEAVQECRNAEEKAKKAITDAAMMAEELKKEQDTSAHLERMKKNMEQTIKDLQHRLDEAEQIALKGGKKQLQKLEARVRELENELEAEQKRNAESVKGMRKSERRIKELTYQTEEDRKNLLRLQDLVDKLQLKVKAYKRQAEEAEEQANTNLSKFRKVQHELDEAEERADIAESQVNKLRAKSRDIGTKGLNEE
T1 sequence (P85100 whole entry partner): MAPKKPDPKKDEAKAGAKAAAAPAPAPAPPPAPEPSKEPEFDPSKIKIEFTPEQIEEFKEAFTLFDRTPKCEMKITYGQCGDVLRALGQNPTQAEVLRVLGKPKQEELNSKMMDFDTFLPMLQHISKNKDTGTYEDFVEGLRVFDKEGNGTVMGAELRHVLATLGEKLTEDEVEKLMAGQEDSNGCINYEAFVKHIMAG
T1 sequence (Q3SZE5 whole entry partner): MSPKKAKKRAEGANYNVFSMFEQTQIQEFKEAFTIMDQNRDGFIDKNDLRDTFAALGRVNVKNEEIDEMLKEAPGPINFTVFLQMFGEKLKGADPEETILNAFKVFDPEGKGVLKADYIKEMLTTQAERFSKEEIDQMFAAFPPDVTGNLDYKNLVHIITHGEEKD
T7 sequence (P11712 whole entry): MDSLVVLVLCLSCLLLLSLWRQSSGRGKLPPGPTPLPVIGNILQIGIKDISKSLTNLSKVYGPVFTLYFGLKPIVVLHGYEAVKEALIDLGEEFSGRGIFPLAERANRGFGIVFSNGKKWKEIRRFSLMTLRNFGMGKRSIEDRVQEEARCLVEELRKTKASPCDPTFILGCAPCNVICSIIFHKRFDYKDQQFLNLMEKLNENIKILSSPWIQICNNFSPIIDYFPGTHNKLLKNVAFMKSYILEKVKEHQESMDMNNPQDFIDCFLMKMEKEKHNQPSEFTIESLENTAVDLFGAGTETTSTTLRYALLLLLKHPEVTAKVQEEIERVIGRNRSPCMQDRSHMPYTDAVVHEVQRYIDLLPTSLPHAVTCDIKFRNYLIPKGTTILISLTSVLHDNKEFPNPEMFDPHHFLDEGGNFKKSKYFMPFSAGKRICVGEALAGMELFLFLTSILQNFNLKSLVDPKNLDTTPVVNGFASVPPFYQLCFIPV

Row | Compound | AUC(0-t) [1] [ng·h/mL] | Cmax [1] [ng/mL] | IC50 [2, 4] [µM] | inhibition at 100 µM (cardiac myosin SII) [%] | inhibition at 100 µM (smooth muscle myosin S1) [%] | IC50 (CYP3A4) [µM] | IC50 (CYP2C19) [µM] | IC50 (CYP1A2) [µM] | IC50 (CYP2D6) [µM] | IC50 (CYP2C9) [µM] | half-life [1] [h] | IC50 [2, 5] [µM] | Kp at 6 h [3] | Kp at 24 h [3]
1 | O=C1CCc2c1cc(Cn1nc(-c3cnc(OCC(F)(F)F)nc3)ccc1=O)cc2C(F)F [Compound 176] |  |  | < 2.5 |  |  | > 30 | > 30 | > 30 | > 30 | > 30 |  |  |  | 
2 | O=C1CCc2ccc(Cn3nc(-c4cnc(OCC5(F)CC5)nc4)ccc3=O)cc21 [Compound 135] |  |  | < 2.5 |  | 8 |  |  |  |  |  | 66.8 | 0.3 | 133 | 165
3 | O=C1CCc2c(Cl)cc(Cn3nc(-c4cnc(C5CC5)nc4)ccc3=O)cc21 [Compound 170] |  |  | < 2.5 |  |  | > 30 | > 30 | > 30 | > 30 | > 30 |  | 0.9 |  | 
4 | O=c1ccc(-c2cnc(O[C@H]3CCOC3)nc2)nn1Cc1ccc2c(c1)CC2 [Compound 106] |  |  | < 2.5 |  |  | > 30 | > 30 | > 30 | > 30 | > 30 |  | 0.2 |  | 
5 | O=c1ccc(-c2cnc(OCC(F)(F)F)nc2)nn1Cc1ccc2c(c1)CC1CC21 (single isomer, unassigned) [Compound 162] | 6180 | 688 | < 2.5 | 13 | 16 |  |  |  |  |  |  | 0.8 |  | 
6 | O=C1CCc2c(Cl)cc(Cn3nc(-c4cnc(O[C@H]5CCOC5)nc4)ccc3=O)cc21 [Compound 172] |  |  | < 2.5 |  |  | > 30 | > 30 | > 30 | > 30 | > 30 |  | 1 | 67 | 129
7 | Cn1cc(Oc2ncc(-c3ccc(=O)n(Cc4ccc5c(c4)CCC5)n3)cn2)cn1 [Compound 128] | 8320 | 1090 | 2.5 to 20 | -10 | -2 |  |  |  |  |  |  |  |  | 
8 | Cc1cc(Cn2nc(-c3cnc(OCC(F)(F)F)nc3)ccc2=O)cc2c1CCC2=O [Compound 169] |  |  | < 2.5 |  |  | > 30 | > 30 | > 30 | > 30 | > 30 |  | 0.8 |  | 

Further lines, results first:

Row | AUC(0-t) [1] [ng·h/mL] | Cmax [1] [ng/mL] | IC50 [2, 4] [µM] | inhibition at 100 µM (cardiac myosin SII) [%] | inhibition at 100 µM (smooth muscle myosin S1) [%] | IC50 (CYP3A4) [µM] | IC50 (CYP2C19) [µM] | IC50 (CYP1A2) [µM] | IC50 (CYP2D6) [µM] | IC50 (CYP2C9) [µM] | half-life [1] [h] | IC50 [2, 5] [µM] | Kp at 6 h [3] | Kp at 24 h [3] | Compound
9 | 8170 | 1380 | < 2.5 | 8 | 3 |  |  |  |  |  |  |  |  |  | O=c1ccc(-c2cnc(OCC(F)(F)F)nc2)nn1Cc1ccc2c(c1)C1CC1C2 (single isomer, unassigned) [Compound 160]
10 |  |  | < 2.5 |  | 14 | > 30 | > 30 | > 30 | > 30 | > 30 |  |  |  |  | O=C1CCc2c(F)cc(Cn3nc(-c4cnc(O[C@@H]5CCOC5)nc4)ccc3=O)cc21 [Compound 163]
11 |  |  | < 2.5 |  |  | > 30 | > 30 | > 30 | > 30 | > 30 |  | 0.9 | 90.1 | 161 | O=C1CCc2c(Cl)cc(Cn3nc(-c4cnc(O[C@@H]5CCOC5)nc4)ccc3=O)cc21 [Compound 171]
12 |  |  | < 2.5 |  | 23.6 | > 30 | > 30 | > 30 | > 30 | > 30 |  | 0.56 |  |  | O=C1Cc2cc(Cn3nc(-c4cnc(OCC(F)(F)F)nc4)ccc3=O)ccc21 [Compound 72]
13 |  |  | < 2.5 |  | -12 | > 30 | > 30 | > 30 | > 30 | > 30 |  | 0.5 | 73.3 | 96.7 | O=C1CCc2c(F)cc(Cn3nc(-c4cnc(OCC(F)(F)F)nc4)ccc3=O)cc21 [Compound 153]
